{"source": "patent US7235366B1", "about": "(priority 1993, dated 2007)", "key": {"[1]": {"target": "T1, mouse delta opioid receptor aspartate 95 to asparagine mutant (Mus musculus, UniProt P32300, D95N)", "T1 construct": "expressed in transfected cells; host or cells: COS-7", "T1 sequence (P32300 whole entry D95N)": "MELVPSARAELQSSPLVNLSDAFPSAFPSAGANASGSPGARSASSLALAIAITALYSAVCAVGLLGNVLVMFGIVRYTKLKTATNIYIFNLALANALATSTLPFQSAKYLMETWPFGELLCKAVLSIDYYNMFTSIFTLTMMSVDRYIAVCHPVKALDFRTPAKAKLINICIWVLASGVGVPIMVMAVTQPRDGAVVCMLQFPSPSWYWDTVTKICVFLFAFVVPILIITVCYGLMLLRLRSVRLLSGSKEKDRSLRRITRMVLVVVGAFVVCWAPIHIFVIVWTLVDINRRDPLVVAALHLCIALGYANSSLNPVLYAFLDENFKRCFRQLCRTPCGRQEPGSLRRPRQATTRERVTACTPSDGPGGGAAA", "experiment": "Binding to delta receptor mutant with aspartate 95 converted to asparagine, COS-7 cells"}, "[2]": {"target": "T2, D128N mutant mouse delta opioid receptor (Mus musculus, UniProt P32300, D128N)", "T2 construct": "expressed in transfected cells; host or cells: COS-7 (transient, pCMV6c)", "T2 sequence (P32300 whole entry D128N)": "as the sequence (P32300 whole entry D95N) above, with N95D, D128N counted along it", "experiment": "biochemical", "type": "binding"}, "cloned mouse κ receptor": {"target": "T3, cloned mouse κ receptor (Mus musculus, UniProt P33534)", "T3 construct": "expressed in transfected cells", "experiment": "biochemical", "type": "binding"}, "[3]": {"target": "T2, D128N mutant mouse delta opioid receptor", "experiment": "Forskolin-stimulated cAMP accumulation, COS-7 cells, D128N mutant", "type": "cell-based", "experimental": "(§1) Briefly, COS-7 cells were subcultured in 12-well culture plates. The cells were transfected 48 hrs. prior to the cAMP experiments. Culture medium was removed from the wells and replaced with 500 μl of fresh medium containing 0.5 mM isobutylmethylxanthine (IBMX). Cells were incubated for 20 min at 37° C. Medium was removed and replaced with fresh medium containing 0.5 mM IBMX, with or without 10 μM forskolin and various opioid agonists. The cells were incubated for 30 min at 37° C. Medium was removed and cells sonicated in the wells in 500 μl of 1NCl. The HCl was evaporated off in a Speed-Vac and the cAMP analyzed using a radioimmunoassay kit from NEN/Dupont (Wilmington, Del.)."}, "[4]": {"target": "T4, H278N mutant mouse delta opioid receptor (Mus musculus, UniProt P32300, H278N)", "T4 construct": "expressed in transfected cells; host or cells: COS-7 (transient, pCMV6c)", "T4 sequence (P32300 whole entry H278N)": "as the sequence (P32300 whole entry D95N) above, with N95D, H278N counted along it", "experiment": "Forskolin-stimulated cAMP accumulation, COS-7 cells, H278N mutant", "type": "cell-based", "experimental": "as §1"}, "[5]": {"target": "T4, H278N mutant mouse delta opioid receptor", "experiment": "biochemical", "type": "binding"}, "[6]": {"target": "T5, wild-type mouse delta opioid receptor (Mus musculus, UniProt P32300)", "T5 construct": "expressed in transfected cells; host or cells: COS-7 (transient, pCMV6c)", "T5 sequence (P32300 whole entry)": "as the sequence (P32300 whole entry D95N) above, with N95D counted along it", "experiment": "Forskolin-stimulated cAMP accumulation, COS-7 cells, wild-type delta receptor", "type": "cell-based", "experimental": "as §1"}, "MOP2": {"target": "T6, MOP2 (Mus musculus, UniProt P35377)", "T6 construct": "expressed in transfected cells; host or cells: COS-7 (transient)", "T6 sequence (P35377 whole entry)": "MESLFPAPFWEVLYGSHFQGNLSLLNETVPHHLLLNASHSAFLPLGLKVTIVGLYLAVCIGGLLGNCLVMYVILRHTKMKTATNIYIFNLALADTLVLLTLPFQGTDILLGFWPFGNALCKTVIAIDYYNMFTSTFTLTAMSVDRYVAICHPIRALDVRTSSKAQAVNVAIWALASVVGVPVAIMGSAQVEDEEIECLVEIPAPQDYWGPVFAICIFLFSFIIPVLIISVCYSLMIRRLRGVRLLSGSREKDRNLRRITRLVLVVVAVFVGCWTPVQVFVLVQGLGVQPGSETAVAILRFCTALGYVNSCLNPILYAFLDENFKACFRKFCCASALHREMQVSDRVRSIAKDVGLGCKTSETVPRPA", "type": "cell-based"}, "cloned mouse δ receptor": {"target": "T7, cloned mouse δ receptor (Mus musculus, UniProt P32300)", "T7 construct": "expressed in transfected cells", "T7 sequence (P32300 whole entry)": "as the sequence (P32300 whole entry D95N) above, with N95D counted along it", "experiment": "biochemical", "type": "binding"}, "[7]": {"target": "T5, wild-type mouse delta opioid receptor", "experiment": "biochemical", "type": "binding"}, "cloned rat μ receptor": {"target": "T8, cloned rat μ receptor (Rattus norvegicus, UniProt P33535)", "T8 construct": "expressed in transfected cells; host or cells: COS-7 (transient)", "T8 sequence (P33535 whole entry)": "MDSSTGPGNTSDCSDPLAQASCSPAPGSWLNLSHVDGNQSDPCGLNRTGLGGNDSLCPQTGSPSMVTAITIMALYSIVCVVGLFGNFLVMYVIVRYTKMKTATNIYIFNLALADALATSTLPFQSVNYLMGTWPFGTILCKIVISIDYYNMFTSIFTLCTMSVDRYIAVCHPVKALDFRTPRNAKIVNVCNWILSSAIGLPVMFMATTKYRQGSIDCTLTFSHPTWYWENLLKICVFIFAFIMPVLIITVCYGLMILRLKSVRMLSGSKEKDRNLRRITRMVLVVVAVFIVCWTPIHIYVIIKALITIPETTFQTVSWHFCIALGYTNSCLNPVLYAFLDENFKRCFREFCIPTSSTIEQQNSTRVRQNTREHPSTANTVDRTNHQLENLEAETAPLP", "experiment": "biochemical", "type": "binding"}}, "data": [{"smiles": "CCC12CCN(CC3(O)CC3)C(Cc3ccc(O)cc31)C2(C)C", "note": "(racemic) [Bremazocine]", "values": [{"measurement": "Affinity of aspartate 95 mutant and wild-type delta receptors compared", "setting": "[1]", "result": "similar"}, {"measurement": "Ki", "setting": "[2]", "result": 2690, "unit": "nM"}, {"measurement": "Ki", "setting": "cloned mouse κ receptor", "result": 0.089, "unit": "nM"}, {"measurement": "EC50", "setting": "[3]", "result": 80, "unit": "nM"}, {"measurement": "EC50", "setting": "[4]", "result": 1.5, "unit": "nM"}, {"measurement": "Ki", "setting": "[5]", "result": 1.7, "unit": "nM"}, {"measurement": "EC50", "setting": "[6]", "result": 7.4, "unit": "nM"}, {"measurement": "Effect on forskolin-stimulated cAMP formation, MOP2", "setting": "MOP2", "result": "no effect"}, {"measurement": "Ki", "setting": "cloned mouse δ receptor", "result": 2.3, "unit": "nM"}, {"measurement": "Ki", "setting": "[7]", "result": 58, "unit": "nM"}, {"measurement": "Ki", "setting": "cloned rat μ receptor", "result": 0.75, "unit": "nM"}]}]}
